In article PMC8760635 (Analytical chemistry, 2021):
Read-outs that look alike come from different tables or passages of the source.

Target: recombinant His6-tagged human FABP5 (Homo sapiens, UniProt Q01469)
Experiment: Isothermal titration calorimetry
Assay type: binding

recombinant His6-tagged human FABP5, sequence (Q01469 whole entry): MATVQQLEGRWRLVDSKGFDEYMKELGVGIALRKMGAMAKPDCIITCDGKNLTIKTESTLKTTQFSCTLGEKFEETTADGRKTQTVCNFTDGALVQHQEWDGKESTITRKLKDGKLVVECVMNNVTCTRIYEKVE

Q: For `O=C(O)C(F)(F)C(F)(F)C(F)(F)C(F)(F)C(F)(F)C(F)(F)C(F)(F)F` [PFOA, perfluorooctanoic acid], which Kd is on record?
A: 77 ± 17 µM

Q: For `O=P(O)(O)C(F)(F)C(F)(F)C(F)(F)C(F)(F)C(F)(F)C(F)(F)C(F)(F)C(F)(F)F` [PFOPA, perfluorooctanephosphonic acid], which Kd (read-out: dissociation constant (Kd), ITC, 25 °C, 100 mM NaCl, 30 mM Tris (pH 7.5), 5% glycerol, one-binding-site model, ± error of the fit) is on record?
A: 167 ± 34 µM
